“And” between values parts separate entries of the source, which are not always exact repeats. Equal values may be shown once.
Assays:
[1] = Solubility of active agents in neat alkyl ketal esters (dissolution, storage at room temperature); settings: for % solids dissolved in Et-LGK with heat, no precipitation / % solids in Et-LGK that did not (completely) dissolve or precipitated at room temperature / % solids dissolved in Et-LGK at room temperature, no precipitation: solvent Et-LGK; for % solids dissolved in Et-LGK with heat, no precipitation: dissolved at 35-80° C.; for % solids dissolved in Et-LGK with heat, no precipitation / % solids dissolved in Et-LGK at room temperature, no precipitation: still soluble after storage at room temperature (24 hours to 5 days) where stated; for % solids in Et-LGK that did not (completely) dissolve or precipitated at room temperature: partially dissolved or precipitated on room temperature storage; for solubility in many alkyl ketal esters: such as ethyl-LGK and ethyl-LPK; for % solids dissolved in Bu-LGK at room temperature, no precipitation: still soluble after 24 hours / 1 day at room temperature; for % solids dissolved in Et-LPK at room temperature, no precipitation: still soluble after 24 hours / 1 day at room temperature where stated; for % solids dissolved in Et-LPK with heat, no precipitation: dissolved at 50-80° C. or with heat, still soluble after storage at room temperature (24 hours to 5 days); for % solids dissolved in Bu-LGK with heat, no precipitation: dissolved at 50-80° C., still soluble after 24 hours at room temperature where stated
[2] = Three-component miscibility test (mixing in a vial at room temperature and shaking, visual clarity)
Source text: The term “miscible” and its variations (“miscibility”, “compatibility”, and the like) are used herein as a synonym for “soluble”, i.e., a mixture of the materials by themselves form a “true” solution, in which one material is molecularly dispersed in the other, or in which one material is dispersed as droplets which have a longest dimension of less than 200 nm, such that the mixture is optically clear. […] A fully miscible alkyl ketal ester is soluble in another material, such as water, at all proportions from 99:1 to 1:99. A partially miscible alkyl ketal ester is immiscible in another material in proportions from greater than 30 parts of the alkyl ketal ester in 70 parts or less of the other material and miscible in other combinations. A sparingly miscible alkyl ketal ester is immiscible in another material or miscible in another material to the extent of less than 10 parts in 90 parts of the other material. […] Unless stated otherwise, miscibility is assessed at 25° C. […] By “macroscopically uniform,” it is meant that the formulation is uniform when viewed at a length scale of at least 10 micrometers.
In these tests, clear mixtures as observed without magnification from a distance of, e.g., 0.3 meters are considered to be “miscible,” whereas cloudy or phase separated mixtures are considered to be “immiscible.” […]
Three-component mixtures of ethyl-LGK, ethanol, and avobenzone were prepared by mixing the materials at various proportions at room temperature in a vial and shaking. […]
Three-component mixtures of ethyl-LGK, water, and oxybenzone were prepared by mixing the materials at various proportions at room temperature in a vial and shaking. […]
Three-component mixtures of Et-LGK, water, and phenoxyethanol were prepared by mixing the materials at various proportions at room temperature in a vial and shaking.
Three-component mixtures of N,N-diethyl-m-toluamide (DEET), ethyl-LGK, and water were prepared by mixing the materials at various proportions at room temperature in a vial and shaking.

[3] = Miscibility of alkyl ketal esters with water and organic compounds; assay type: physicochemical; settings: 25° C. unless stated otherwise
Description: Unless stated otherwise, miscibility is assessed at 25° C.

O=C(OOC(=O)c1ccccc1)c1ccccc1 [Benzoyl peroxide]
% solids dissolved in Et-LGK with heat, no precipitation [1]: 5%
% solids in Et-LGK that did not (completely) dissolve or precipitated at room temperature ([1]; insoluble): 9.5%
solubility in many alkyl ketal esters [1]: lower solubilities

CCCCCCC(O)CO (stereo not drawn) [Caprylyl glycol]
% solids dissolved in Et-LGK at room temperature, no precipitation [1]: 15% and 20.8%

COC1=C(OC)C(=O)C(C/C=C(\C)CC/C=C(\C)CC/C=C(\C)CC/C=C(\C)CC/C=C(\C)CC/C=C(\C)CC/C=C(\C)CC/C=C(\C)CC/C=C(\C)CCC=C(C)C)=C(C)C1=O [Coenzyme Q10, Ubiquinone]
% solids in Bu-LGK that did not (completely) dissolve ([1]; solvent Bu-LGK, insoluble, dispersion or partially dissolved): 5%
% solids in Et-LGK that did not (completely) dissolve or precipitated at room temperature ([1]; insoluble): 3.7%

CCN(CC)C(=O)c1cccc(C)c1 [DEET, N,N-diethyl-m-toluamide]
50/50 mixture with Et-LGK ([1]; room temperature where stated): miscible
50/50 mixture with Et-LPK ([1]; room temperature where stated): miscible
solubility in ethanol and ethyl-LPK [2]: soluble
clarity of DEET / ethyl-LGK / water mixture ([2]; 26.7 parts of DEET, 60.5 parts of ethyl-LGK, 12.8 parts of water, room temperature): clear mixture

COc1cc2c(cc1O)CCC(C)(C)O2 [Dimethylmethoxy Chromanol]
% solids dissolved in Bu-LGK at room temperature, no precipitation ([1]; solvent Bu-LGK): 2.5%
% solids dissolved in Et-LGK at room temperature, no precipitation [1]: 2.5%
% solids dissolved in Et-LPK at room temperature, no precipitation ([1]; solvent Et-LPK): 2.5%

O=C(CO)[C@H](O)CO [Erythrulose]
mixture with Bu-LGK at a ratio of 10/90 ([1]; room temperature): separated into distinct phases
mixture with Et-LPK at a ratio of 10/90 ([1]; room temperature): separated into distinct phases
mixture with Et-LGK at a ratio of 10/90 ([1]; room temperature, still soluble after 24 hours): clear uniform solution

CCOC(=O)CC1(C)OCC(CO)O1 (stereo not drawn) [Et-AcAcGK]
miscible with water [3]: in all proportions
Result (miscibility of ketal with water) ([2]; 50.0% ketal / 50.0% water, no oxybenzone): Miscible

Oc1ccc(O)cc1 [Hydroquinone]
% solids dissolved in Et-LGK with heat, no precipitation [1]: 5%
% solids dissolved in Et-LPK with heat, no precipitation ([1]; solvent Et-LPK): 10%

COC(=O)CC1(C)OCC(CO)O1 (stereo not drawn) [Me-AcAcGK]
miscible with water [3]: in all proportions

Oc1ccc(C=Cc2cc(O)cc(O)c2)cc1 [Resveratrol]
% solids dissolved in Bu-LGK with heat, no precipitation ([1]; solvent Bu-LGK): 0.5%
% solids dissolved in Et-LGK at room temperature, no precipitation [1]: 1%
% solids dissolved in Et-LPK with heat, no precipitation ([1]; solvent Et-LPK): 0.5%
solubility in many alkyl ketal esters [1]: lower solubilities

CC1=C(/C=C/C(C)=C/C=C/C(C)=C/C(=O)O)C(C)(C)CCC1 [Retinoic acid]
% solids soluble in Et-LPK at 80° C. ([1]; solvent Et-LPK, 80° C.): 1.88%
solubility in many alkyl ketal esters [1]: lower solubilities

COc1cc(CCC(=O)CC(=O)CCc2ccc(O)c(OC)c2)ccc1O [Tetrahydrocurcuminoids, tetrahydrodiferuloylmethane]
% solids dissolved in Bu-LGK with heat, no precipitation ([1]; solvent Bu-LGK): 5%
% solids dissolved in Et-LGK at room temperature, no precipitation [1]: 20%
% solids dissolved in Et-LPK with heat, no precipitation ([1]; solvent Et-LPK): 5%

O=C(CCCCc1ccc2c(c1)OCO2)N1CCCCC1 [Tetrahydropiperine]
% solids dissolved in Bu-LGK at room temperature, no precipitation ([1]; solvent Bu-LGK): 20%
% solids dissolved in Et-LGK at room temperature, no precipitation [1]: 20%
% solids dissolved in Et-LPK at room temperature, no precipitation ([1]; solvent Et-LPK): 20%

— patent publication US9549886B2, “Personal care formulations containing alkyl ketal esters and methods of manufacture” (SEGETIS, INC., priority 2010, dated 2017)
